# Reference: patent US7906522B2, “2-aminoquinazoline derivatives” (Kyowa Hakko Kirin Co., Ltd, priority 2005, dated 2011)
# Biological target: T1, Activated human p38α (Homo sapiens, UniProt Q16539)
# T1 construct: purchased Upstate Biotechnology Inc. 14-251
# Assay: p38MAP kinase inhibition test
# Format: biochemical
# Conditions: at a concentration of 1 μmol/L; substrate myelin basic protein, ATP 20 μmol/L, [γ-32P]ATP; read-out: enzyme inhibitory activity
# Procedure, shortened: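 Radiometric kinase assay with myelin basic protein (20 μg/assay) as substrate, 20 μmol/L ATP plus [γ-32P]ATP, MOPS pH 7.2 with MgCl2 18.75 mmol/L. Reaction run 15 min at 30° C., stopped with phosphoric acid; 32P-MBP captured on phosphocellulose and counted by scintillation.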
# T1 sequence (Q16539 whole entry): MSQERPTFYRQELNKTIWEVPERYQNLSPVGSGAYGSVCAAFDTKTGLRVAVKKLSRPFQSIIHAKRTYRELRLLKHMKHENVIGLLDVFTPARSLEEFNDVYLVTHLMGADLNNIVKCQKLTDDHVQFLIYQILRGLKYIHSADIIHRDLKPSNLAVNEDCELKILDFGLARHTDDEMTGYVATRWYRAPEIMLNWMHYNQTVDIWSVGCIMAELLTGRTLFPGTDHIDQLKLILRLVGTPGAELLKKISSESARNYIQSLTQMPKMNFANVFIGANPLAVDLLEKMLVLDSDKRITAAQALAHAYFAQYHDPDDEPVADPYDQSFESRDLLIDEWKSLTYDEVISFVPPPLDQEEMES
row,Compound,inhibition at 1 µM [%]
1,"COc1cc2nc(NC(C)C)ncc2cc1-c1cccc(NC(=O)c2cccc(C(F)(F)F)c2)c1 [Compound 216, 2-Isopropylamino-7-methoxy-6-{3-[(3-trifluoromethylphenyl)carbonylamino]phenyl}quinazoline]",≥ 50
2,"COc1cc2nc(N[C@H]3CC[C@H](NS(C)(=O)=O)CC3)ncc2cc1-c1ccccc1Cl [Compound 146, 6-(2-Chlorophenyl)-7-methoxy-2-[trans-4-(methylsulfonylamino)cyclohexylamino]quinazoline]",≥ 50
3,"CC(C)Nc1ncc2cc(-c3cccc(N)c3)c(O)cc2n1 [Compound 285, 6-(3-Aminophenyl)-7-hydroxy-2-(isopropylamino)quinazoline]",≥ 50
4,"CC(C)Nc1ncc2cc(-c3ccccc3Cl)c(OCc3ccc(C(=O)O)cc3)cc2n1 [Compound 28, 7-(4-Carboxyphenylmethyloxy)-6-(2-chlorophenyl)-2-isopropylaminoquinazoline]",≥ 50
5,"CC(C)Nc1ncc2cc(-c3cccc(NC(=O)c4ccc[nH]4)c3)c(O)cc2n1 [Compound 292, 7-Hydroxy-2-isopropylamino-6-{3-[(1H-pyrrol-2-yl)carbonylamino]phenyl}quinazoline]",≥ 50
6,"COc1cc2nc(NC(C)C)ncc2cc1-c1cccc(NC(=O)c2ccc(C(F)(F)F)cc2)c1 [Compound 213, 2-Isopropylamino-7-methoxy-6-{3-[(4-trifluoromethylphenyl)carbonylamino]phenyl}quinazoline]",≥ 50
7,"COc1cc2nc(NC(C)C)ncc2cc1-c1cccc(N)c1 [Compound 50, 6-(3-Aminophenyl)-2-isopropylamino-7-methoxyquinazoline]",≥ 50
8,"COc1cc2nc(NC(C)C)ncc2cc1-c1ccccc1C(=O)N1CCOCC1 [Compound 188, 2-Isopropylamino-7-methoxy-6-[2-(morpholinocarbonyl)phenyl]quinazoline]",≥ 50
9,"CC(=O)Nc1ccc(CO)c(-c2cc3cnc(NC(C)C)nc3cc2C)c1 [Compound 280, 6-[(5-Acetylamino-2-hydroxymethyl)phenyl]-2-isopropylamino-7-methylquinazoline]",≥ 50
10,"CC(C)Nc1ncc2cc(-c3ccccc3Cl)c(OCC#N)cc2n1 [Compound 21, 6-(2-Chlorophenyl)-7-cyanomethyloxy-2-isopropylaminoquinazoline]",≥ 50
11,"CC(C)Nc1ncc2cc(-c3ccccc3Cl)c(OCCCC(=O)O)cc2n1 [Compound 31, 7-(3-Carboxypropyloxy)-6-(2-chlorophenyl)-2-isopropylaminoquinazoline]",≥ 50
12,"Cc1ccc(NC(=O)C2CCC2)cc1-c1cc2cnc(NC(C)C)nc2cc1O [Compound 293, 6-(5-Cyclobutylcarbonylamino-2-methylphenyl)-7-hydroxy-2-(isopropylamino)quinazoline]",≥ 50
13,"COc1cc2nc(NC3CCN(S(=O)(=O)C(C)C)CC3)ncc2cc1-c1ccccc1Cl [Compound 143, 6-(2-Chlorophenyl)-2-[1-(isopropylsulfonyl)piperidin-4-ylamino]-7-methoxyquinazoline]",≥ 50
14,"COc1c(-c2ccccc2Cl)cc2cnc(NC(C)C)nc2c1C(=O)N(C)OC [Compound 71, 6-(2-Chlorophenyl)-2-isopropylamino-7-methoxy-8-(N-methoxy-N-methylaminocarbonyl)quinazoline]",≥ 50
15,"CC(C)Nc1ncc2cc(-c3cccc([N+](=O)[O-])c3)c(OCc3ccccc3)cc2n1 [Compound 282, 7-Benzyloxy-2-isopropylamino-6-(3-nitrophenyl)quinazoline]",≥ 50
16,"COc1cc2nc(NC3CCN(S(=O)(=O)CC(F)(F)F)CC3)ncc2cc1-c1ccccc1Cl [Compound 14, 6-(2-Chlorophenyl)-7-methoxy-2-[1-(2,2,2-trifluoroethylsulfonyl)piperidin-4-ylamino]quinazoline]",≥ 50
17,"CC[C@H](C)Nc1ncc2cc(-c3cc(NC(C)=O)ccc3CO)ccc2n1 [Compound 272, (S)-6-[5-acetylamino-2-(hydroxymethyl)phenyl]-2-(sec-butylamino)quinazoline]",≥ 50
18,"COc1c(-c2ccccc2Cl)cc2cnc(NC(C)C)nc2c1Br [Compound 60, 8-Bromo-6-(2-chlorophenyl)-2-isopropylamino-7-methoxyquinazoline]",≥ 50
19,"COc1cc2nc(NC3CCN(S(C)(=O)=O)CC3)ncc2cc1-c1ccccc1NC(C)=O [Compound 239, 6-(2-Acetylaminophenyl)-7-methoxy-2-[1-(methylsulfonyl)piperidin-4-ylamino]quinazoline]",≥ 50
20,"COc1cc2nc(NC(C)C)ncc2cc1-c1cccc(NC(=O)c2ccnc(N3CCOCC3)c2)c1 [Compound 53, 2-Isopropylamino-7-methoxy-6-{3-[(2-morpholinopyridin-4-yl)carbonylamino]phenyl}quinazoline]",≥ 50
21,"CC(C)Nc1ncc2cc(-c3cccc(NC(=O)C(C)(C)C)c3)c(O)cc2n1 [Compound 298, 6-[3-(tert-Butylcarbonylamino)phenyl]-7-hydroxy-2-(isopropylamino)quinazoline]",≥ 50

row,Compound,inhibition at 1 µM [%]
1,"COc1cc2nc(N)ncc2cc1-c1cc(NC(C)=O)ccc1C [Compound 249, 6-(5-Acetylamino-2-methylphenyl)-2-amino-7-methoxyquinazoline]",≥ 50
2,"COc1c(-c2ccccc2Cl)cc2cnc(NC(C)C)nc2c1C(C)=O [Compound 77, 8-Acetyl-6-(2-chlorophenyl)-2-isopropylamino-7-methoxyquinazoline]",≥ 50
3,"COc1c(-c2ccccc2Cl)cc2cnc(NC(C)C)nc2c1C(=O)N1CCOCC1 [Compound 66, 6-(2-Chlorophenyl)-2-isopropylamino-8-(morpholinocarbonyl)-7-methoxyquinazoline]",≥ 50
4,"NC(=O)N1CCC(Nc2ncc3cc(-c4ccccc4Cl)c(O)cc3n2)CC1 [Compound 157, 2-(1-Carbamoylpiperidin-4-ylamino)-6-(2-chlorophenyl)-7-hydroxyquinazoline]",≥ 50
5,"CC(C)Nc1ncc2cc(C(=O)c3ccccc3F)c(O)cc2n1 [Compound 126, 6-(2-Fluorobenzoyl)-7-hydroxy-2-(isopropylamino)quinazoline]",≥ 50
6,"COCOc1c(-c2ccccc2Cl)cc2cnc(NC(C)C)nc2c1-c1ccccc1F [Compound 99, 6-(2-Chlorophenyl)-8-(2-fluorophenyl)-2-isopropylamino-7-(methoxymethyloxy)quinazoline]",≥ 50
7,"COc1cc2nc(NC(C)C)ncc2cc1-c1cc([N+](=O)[O-])ccc1CO [Compound 223, 6-(2-Hydroxymethyl-5-nitrophenyl)-2-isopropylamino-7-methoxyquinazoline]",≥ 50
8,"CCC(=O)Nc1cccc(-c2cc3cnc(NC(C)C)nc3cc2O)c1 [Compound 297, 7-Hydroxy-2-isopropylamino-6-[3-(propionylamino)phenyl]quinazoline]",≥ 50
9,"CC(C)CNc1ncc2cc(-c3ccccc3Cl)c(O)cc2n1 [Compound 160, 6-(2-Chlorophenyl)-7-hydroxy-2-isobutylaminoquinazoline]",≥ 50
10,"CCCS(=O)(=O)N1CCC(Nc2ncc3cc(-c4ccccc4Cl)c(OC)cc3n2)CC1 [Compound 148, 6-(2-Chlorophenyl)-7-methoxy-2-[1-(1-propylsulfonyl)piperidin-4-ylamino]quinazoline]",≥ 50
11,"COc1cc2nc(NC(C)C)ncc2cc1C(=O)c1ccccc1C [Compound 113, 2-Isopropylamino-7-methoxy-6-(2-methylbenzoyl)quinazoline]",≥ 50
12,"COc1c(-c2ccccc2Cl)cc2cnc(NC(C)C)nc2c1/C=C/C(=O)O [Compound 74, 8-[(E)-2-carboxyethenyl]-6-(2-chlorophenyl)-7-methoxy-2-(isopropylamino)quinazoline]",≥ 50
13,"Cc1ccccc1-c1cc2cnc(Nc3c(C)cccc3C(C)C)nc2cc1O [Compound 177, 7-Hydroxy-2-(2-isopropyl-6-methylanilino)-6-(2-methylphenyl)quinazoline]",≥ 50
14,"CC(C)Nc1ncc2cc(-c3ccccc3Cl)c(O)cc2n1 [Compound 19, 6-(2-Chlorophenyl)-7-hydroxy-2-isopropylaminoquinazoline]",≥ 50
15,"CNC(=O)Nc1cccc(-c2cc3cnc(NC(C)C)nc3cc2OC)c1 [Compound 212, 2-Isopropylamino-7-methoxy-6-[3-(3-methylureido)phenyl]quinazoline]",≥ 50
16,"COc1cc2nc(NC(C)C)ncc2cc1C(=O)c1cccc(Cl)c1 [Compound 117, 6-(3-Chlorobenzoyl)-2-isopropylamino-7-methoxyquinazoline]",≥ 50
17,"O=C(c1ccccc1)c1cc2cnc(Nc3c(Cl)cccc3Cl)nc2cc1O [Compound 141, 6-Benzoyl-2-(2,6-dichloroanilino)-7-hydroxyquinazoline]",≥ 50
18,"O=C(c1ccccc1)c1cc2cnc(NC3CCOCC3)nc2cc1O [Compound 138, 6-Benzoyl-7-hydroxy-2-(4-tetrahydropyranylamino)quinazoline]",≥ 50
19,"COc1cc2nc(NC(C)C)ncc2cc1-c1ccccc1F [Compound 190, 6-(2-Fluorophenyl)-2-isopropylamino-7-methoxyquinazoline]",≥ 50
20,"COc1cc2nc(NC(C)C)ncc2cc1-c1cccc(O)c1 [Compound 196, 6-(3-Hydroxyphenyl)-2-isopropylamino-7-methoxyquinazoline]",≥ 50
21,"COc1cc2nc(NC3CCN(S(C)(=O)=O)CC3)ncc2cc1-c1ccccc1O [Compound 241, 6-(2-Hydroxyphenyl)-7-methoxy-2-[1-(methylsulfonyl)piperidin-4-ylamino]quinazoline]",≥ 50
